Results published in PubChem BioAssay (NCI).
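A five-concentration, 48-hour dose response in 96-well plates underlies each endpoint, interpolated linearly between surrounding concentrations. At the TGI there is no net growth.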

Experiments:
Assay in all cases: growth of human tumour cells (NCI), 48 h
HOP-92 NSCLC = test system: HOP-92 NSCLC
HOP-62 NSCLC = test system: HOP-62 NSCLC
IGROV1 ovarian = test system: IGROV1 ovarian
MDA-N = test system: MDA-N
EKVX NSCLC = test system: EKVX NSCLC
SK-OV-3 ovarian = test system: SK-OV-3 ovarian
SK-MEL-5 melanoma = test system: SK-MEL-5 melanoma
DU-145 prostate = test system: DU-145 prostate
SK-MEL-28 melanoma = test system: SK-MEL-28 melanoma
MCF7 breast = test system: MCF7 breast
OVCAR-8 ovarian = test system: OVCAR-8 ovarian
PC-3 prostate = test system: PC-3 prostate
HCT-15 colon = test system: HCT-15 colon
MDA-MB-435 = test system: MDA-MB-435
UACC-62 melanoma = test system: UACC-62 melanoma
SW-620 colon = test system: SW-620 colon
HCC-2998 colon = test system: HCC-2998 colon
TK-10 renal = test system: TK-10 renal
RPMI-8226 leukemia = test system: RPMI-8226 leukemia
SN12C renal = test system: SN12C renal
SNB-19 CNS = test system: SNB-19 CNS
CAKI-1 renal = test system: CAKI-1 renal
SF-268 CNS = test system: SF-268 CNS
NCI-H23 lung = test system: NCI-H23 lung
SR leukemia = test system: SR leukemia
MDA-MB-231 breast = test system: MDA-MB-231 breast
OVCAR-4 ovarian = test system: OVCAR-4 ovarian
A549 NSCLC = test system: A549 NSCLC
SNB-75 CNS = test system: SNB-75 CNS
LOX IMVI melanoma = test system: LOX IMVI melanoma
MOLT-4 leukemia = test system: MOLT-4 leukemia
HT29 colon = test system: HT29 colon
BT-549 breast = test system: BT-549 breast
NCI/ADR-RES ovarian = test system: NCI/ADR-RES ovarian
NCI-H460 lung = test system: NCI-H460 lung
SF-539 CNS = test system: SF-539 CNS
KM12 colon = test system: KM12 colon
SK-MEL-2 melanoma = test system: SK-MEL-2 melanoma
ACHN renal = test system: ACHN renal
K-562 leukemia = test system: K-562 leukemia
NCI-H522 lung = test system: NCI-H522 lung
UACC-257 melanoma = test system: UACC-257 melanoma
COLO 205 colon = test system: COLO 205 colon
HS 578T breast = test system: HS 578T breast
SF-295 CNS = test system: SF-295 CNS
M14 melanoma = test system: M14 melanoma
U251 CNS = test system: U251 CNS
NCI-H226 lung = test system: NCI-H226 lung
UO-31 renal = test system: UO-31 renal
T-47D breast = test system: T-47D breast
OVCAR-3 ovarian = test system: OVCAR-3 ovarian
A498 renal = test system: A498 renal
OVCAR-5 ovarian = test system: OVCAR-5 ovarian
786-0 renal = test system: 786-0 renal
MALME-3M melanoma = test system: MALME-3M melanoma
HCT-116 colon = test system: HCT-116 colon
CCRF-CEM leukemia = test system: CCRF-CEM leukemia
HL-60(TB) leukemia = test system: HL-60(TB) leukemia

Measured: TGI

Cc1oc2c(c1C)S(=O)(=O)C(C#N)=CN2
not listed: CCRF-CEM leukemia | HL-60(TB) leukemia
> 100 µM: all other assays above

O=C(O)COc1cc(-c2ccccc2)nc2ccc(F)cc12
> 100 µM: all assays above
